Test [1] has as its target Casein kinase I isoform delta (Homo sapiens) (UniProt P48730). Put plainly: Inhibition of recombinant human CK1delta (1 to 294 residues) at 10 uM using KRRRALS(p)VASLPGL as substrate measured after 40 mins in presence of [gamma33P]ATP by scintillation counting method relative to control.
The target in test [2] is Protein-tyrosine kinase 6 (Homo sapiens) (UniProt Q13882). The test is described as follows: Inhibition of full-length recombinant human BRK at 10 uM using poly(Glu, Tyr) 4:1 as substrate measured after 40 mins in presence of [gamma33P]ATP by scintillation counting method relative to control.
Test [3] deals with Cyclin-dependent kinase-like 2 (Homo sapiens) (UniProt Q92772). Put plainly: Inhibition of human CDKL2 at 10 uM by radiometric method relative to control.
Test [4] has as its target Serine/threonine-protein kinase pim-1 (Homo sapiens) (UniProt P11309). The test is described as follows: Inhibition of recombinant full-length human PIM1 at 10 uM using KKRNRTLTV as substrate measured after 40 mins in presence of [gamma33P]ATP by scintillation counting method relative to control.
In test [5] the target is DNA (cytosine-5)-methyltransferase 1 (Homo sapiens) (UniProt P26358). The test is described as follows: Inhibition of human DNMT1 at 10 uM after 1 hr by radioisotope-based assay relative to control.
For test [6], the species on record is Homo sapiens. The test is described as follows: Inhibition of recombinant full-length human ATRIP/ATR M211T mutant at 10 uM using GST-cMyc-p53 as substrate measured after 40 mins by fluorescence assay relative to control.
For test [7], the target named is Fatty acid-binding protein, heart (Homo sapiens) (UniProt P05413). Put plainly: Binding affinity to FABP3 (unknown origin) at 1:1 ratio by fluorescence based thermal shift assay.
The species entered for test [8] is Homo sapiens. The test is described as follows: Inhibition of full-length recombinant human PKBalpha S478G mutant at 10 uM using GRPRTSSFAEGKK as substrate after 40 mins by in presence of [gamma33P]ATP by scintillation counting method relative to control.
The target in test [9] is Fatty acid-binding protein, adipocyte (Homo sapiens) (UniProt P15090). The test is described as follows: Binding affinity to FABP4 (unknown origin) at 1:1 ratio by fluorescence based thermal shift assay.
Test [10] deals with Tyrosine-protein kinase CSK (Homo sapiens) (UniProt P41240). Put plainly: Inhibition of recombinant full length human CSK at 10 uM using poly(Glu,Tyr) as substrate measured after 40 mins in presence of [gamma33P]ATP by scintillation counting method relative to control.
The target in test [11] is Serine/threonine-protein kinase Nek2 (Homo sapiens) (UniProt P51955). The test is described as follows: Inhibition of recombinant human full length NEK2 at 10 uM using myelin basic protein as substrate incubated for 40 mins in presence of [gamma-33P]-ATP by scintillation counting method relative to control.
In test [12] the target is Transcriptional enhancer factor TEF-3 (Homo sapiens, UniProt Q15561). Put plainly: Inhibition of N-terminal His6 tagged human TEAD4-YBD (217 to 434 residues) expressed in Escherichia coli C43 (DE3) cells assessed as reduction in autopalmitoylation at 200 nM preincubated for 2 hrs followed by palmitoyl alkyne-coenzyme A addition and measured after 30 mins immunoblot analysis relative to control.

Test [13] has as its target Tyrosine-protein kinase Fer (Homo sapiens) (UniProt P16591). Put plainly: Inhibition of recombinant human FER (541 to end residues) at 10 uM using KKKSPGEYVNIEFG as substrate measured after 40 mins in presence of [gamma33P]ATP by scintillation counting method relative to control.
Test [14] has as its target Mitogen-activated protein kinase kinase kinase kinase 4 (Homo sapiens) (UniProt O95819). Put plainly: Inhibition of recombinant human MAP4K4 (1 to 328 residues) at 10 uM using RLGRDKYKTLRQIRQ as substrate measured after 40 mins in presence of [gamma33P]ATP by scintillation counting method relative to control.
Test [15] deals with Cyclin-dependent kinase 1/cyclin B1 (Homo sapiens) (UniProt P06493+P14635). Put plainly: Inhibition of full-length recombinant human CDK1/cyclinB at 10 uM using histone H1 as substrate after 40 mins by in presence of [gamma33P]ATP by scintillation counting method relative to control. The test is classed as protein-complex assay.
Test [16] concerns the target Receptor-type tyrosine-protein kinase FLT3 (Homo sapiens) (UniProt P36888). The test is described as follows: Inhibition of recombinant human Flt3 (564 to end residues) at 10 uM using EAIYAAPFAKKK as substrate after 40 mins in presence of [gamma33P]ATP by scintillation counting method relative to control.
Test [17] has as its target Serine/threonine-protein kinase PLK1 (Homo sapiens) (UniProt P53350). The test is described as follows: Inhibition of full length recombinant human Plk1 at 10 uM using casein as substrate after 40 mins in presence of [gamma33P]ATP by scintillation counting method relative to control.
Test [18] addresses Platelet-derived growth factor receptor beta (Homo sapiens) (UniProt P09619). Put plainly: Inhibition of recombinant human PDGFRbeta (557 to end residues) at 10 uM using poly(Glu, Tyr) 4:1 as substrate measured after 40 mins in presence of [gamma33P]ATP by scintillation counting method relative to control.
Test [19] has as its target Tyrosine-protein kinase JAK3 (Homo sapiens) (UniProt P52333). Put plainly: Inhibition of recombinant human JAK3 (781 to end residues) at 10 uM using GGEEEEYFELVKKKK as substrate measured after 40 mins in presence of [gamm33P]ATP by scintillation counting method relative to control.
Test [20] deals with Interleukin-1 receptor-associated kinase 1 (Homo sapiens) (UniProt P51617). The test is described as follows: Inhibition of recombinant human IRAK1 (194 to end residues) at 10 uM using myelin basic protein as substrate after 40 mins in presence of [gamma33P]ATP by scintillation counting method relative to control.
For test [21], the target named is Tyrosine-protein kinase ABL2 (Homo sapiens) (UniProt P42684). The test is described as follows: Inhibition of recombinant human ARG (38 to end residues) at 10 uM using EAIYAAPFAKKK as substrate measured after 40 mins in presence of [gamma33P]ATP by scintillation counting method relative to control.
The target in test [22] is Serine/threonine-protein kinase Chk1 (Homo sapiens) (UniProt O14757). Put plainly: Inhibition of recombinant full length human CHK1 at 10 uM using KKKVSRSGLYRSPSMPENLNRPR as substrate measured after 40 mins in presence of [gamma33P]ATP by scintillation counting method relative to control.
The target in test [23] is Mitogen-activated protein kinase kinase kinase 5 (Homo sapiens) (UniProt Q99683). Put plainly: Inhibition of recombinant human ASK1 (649 to 946 residues) at 10 uM using myelin basic protein as substrate measured after 40 mins in presence of [gamma33P]ATP by scintillation counting method relative to control.
Test [24] concerns the target Protein kinase C beta type (Homo sapiens) (UniProt P05771). Put plainly: Inhibition of recombinant human PKCbeta2 (2 to end residues) at 10 uM using histone H1 as substrate after 40 mins by in presence of [gamma33P]ATP by scintillation counting method relative to control.

Calls of active or inactive are those of the source. The calls are words filed in the database; no cut-off is given here.

Chain of Interleukin-1 receptor-associated kinase 1 (Homo sapiens) (P51617 whole entry, looked up): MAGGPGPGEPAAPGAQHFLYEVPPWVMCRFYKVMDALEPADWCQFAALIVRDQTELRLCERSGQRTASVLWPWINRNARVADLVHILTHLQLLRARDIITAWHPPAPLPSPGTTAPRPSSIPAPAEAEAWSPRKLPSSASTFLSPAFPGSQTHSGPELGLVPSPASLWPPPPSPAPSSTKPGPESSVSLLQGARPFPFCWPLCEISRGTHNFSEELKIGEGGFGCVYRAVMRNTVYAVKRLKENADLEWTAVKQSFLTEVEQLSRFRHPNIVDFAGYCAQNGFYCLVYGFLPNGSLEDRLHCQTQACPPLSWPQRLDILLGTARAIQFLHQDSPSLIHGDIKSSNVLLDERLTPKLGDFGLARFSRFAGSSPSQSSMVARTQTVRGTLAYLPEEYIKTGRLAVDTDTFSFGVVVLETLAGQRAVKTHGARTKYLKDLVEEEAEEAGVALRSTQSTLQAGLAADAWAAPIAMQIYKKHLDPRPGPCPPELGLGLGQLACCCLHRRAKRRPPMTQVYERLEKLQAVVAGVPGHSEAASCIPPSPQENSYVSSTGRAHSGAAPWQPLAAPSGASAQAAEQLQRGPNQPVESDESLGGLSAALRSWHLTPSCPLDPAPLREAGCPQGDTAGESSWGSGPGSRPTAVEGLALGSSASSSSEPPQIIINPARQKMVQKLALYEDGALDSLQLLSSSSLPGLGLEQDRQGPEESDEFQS
Chain of Cyclin-dependent kinase 1/cyclin B1 (Homo sapiens) (P06493 whole entry, looked up): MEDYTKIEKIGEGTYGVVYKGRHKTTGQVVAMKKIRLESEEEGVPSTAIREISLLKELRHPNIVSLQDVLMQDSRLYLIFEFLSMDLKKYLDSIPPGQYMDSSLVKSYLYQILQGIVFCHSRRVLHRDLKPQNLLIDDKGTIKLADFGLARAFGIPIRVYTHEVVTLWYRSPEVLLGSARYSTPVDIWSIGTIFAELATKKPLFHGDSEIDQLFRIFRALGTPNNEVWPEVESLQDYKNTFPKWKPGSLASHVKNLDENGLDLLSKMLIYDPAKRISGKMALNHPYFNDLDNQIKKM
Chain of Cyclin-dependent kinase 1/cyclin B1 (Homo sapiens) (P14635 whole entry, looked up): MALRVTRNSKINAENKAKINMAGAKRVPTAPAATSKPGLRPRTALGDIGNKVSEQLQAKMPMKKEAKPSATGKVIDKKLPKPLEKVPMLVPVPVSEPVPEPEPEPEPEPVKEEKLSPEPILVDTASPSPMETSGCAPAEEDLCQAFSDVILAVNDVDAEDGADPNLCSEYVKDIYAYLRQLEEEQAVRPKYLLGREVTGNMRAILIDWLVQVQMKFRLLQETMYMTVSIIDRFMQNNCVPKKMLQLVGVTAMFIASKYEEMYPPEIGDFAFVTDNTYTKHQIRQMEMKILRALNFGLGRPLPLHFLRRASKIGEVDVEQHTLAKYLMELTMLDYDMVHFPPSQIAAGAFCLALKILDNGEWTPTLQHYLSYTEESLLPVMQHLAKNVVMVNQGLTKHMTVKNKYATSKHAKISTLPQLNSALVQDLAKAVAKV
Chain of Protein-tyrosine kinase 6 (Homo sapiens) (Q13882 whole entry, looked up): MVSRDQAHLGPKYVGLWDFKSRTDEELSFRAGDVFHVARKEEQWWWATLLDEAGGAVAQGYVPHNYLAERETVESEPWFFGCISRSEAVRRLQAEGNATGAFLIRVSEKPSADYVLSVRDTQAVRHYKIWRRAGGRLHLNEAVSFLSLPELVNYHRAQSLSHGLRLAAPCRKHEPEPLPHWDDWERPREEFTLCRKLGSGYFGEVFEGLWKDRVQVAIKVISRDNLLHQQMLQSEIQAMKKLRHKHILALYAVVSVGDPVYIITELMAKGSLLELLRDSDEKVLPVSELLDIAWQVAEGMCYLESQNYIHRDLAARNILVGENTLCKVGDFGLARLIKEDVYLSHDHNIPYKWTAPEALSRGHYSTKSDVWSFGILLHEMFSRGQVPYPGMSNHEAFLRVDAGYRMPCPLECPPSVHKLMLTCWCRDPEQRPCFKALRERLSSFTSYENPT
Chain of Serine/threonine-protein kinase PLK1 (Homo sapiens) (P53350 whole entry): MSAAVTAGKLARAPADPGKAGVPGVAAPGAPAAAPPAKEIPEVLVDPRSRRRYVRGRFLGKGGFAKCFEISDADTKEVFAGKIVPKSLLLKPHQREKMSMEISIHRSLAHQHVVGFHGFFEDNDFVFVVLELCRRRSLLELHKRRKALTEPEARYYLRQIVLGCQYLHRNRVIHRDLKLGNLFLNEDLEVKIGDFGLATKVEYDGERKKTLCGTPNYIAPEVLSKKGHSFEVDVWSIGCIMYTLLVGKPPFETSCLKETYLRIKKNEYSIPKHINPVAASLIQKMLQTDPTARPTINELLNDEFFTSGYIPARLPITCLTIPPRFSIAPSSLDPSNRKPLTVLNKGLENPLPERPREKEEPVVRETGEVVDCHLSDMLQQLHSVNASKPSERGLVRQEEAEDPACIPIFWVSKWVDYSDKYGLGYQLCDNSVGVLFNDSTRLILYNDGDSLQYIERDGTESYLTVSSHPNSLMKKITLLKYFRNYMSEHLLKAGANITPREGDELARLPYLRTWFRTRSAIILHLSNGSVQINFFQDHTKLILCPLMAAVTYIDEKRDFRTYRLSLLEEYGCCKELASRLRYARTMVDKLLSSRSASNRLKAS
Chain of Tyrosine-protein kinase ABL2 (Homo sapiens) (P42684 whole entry): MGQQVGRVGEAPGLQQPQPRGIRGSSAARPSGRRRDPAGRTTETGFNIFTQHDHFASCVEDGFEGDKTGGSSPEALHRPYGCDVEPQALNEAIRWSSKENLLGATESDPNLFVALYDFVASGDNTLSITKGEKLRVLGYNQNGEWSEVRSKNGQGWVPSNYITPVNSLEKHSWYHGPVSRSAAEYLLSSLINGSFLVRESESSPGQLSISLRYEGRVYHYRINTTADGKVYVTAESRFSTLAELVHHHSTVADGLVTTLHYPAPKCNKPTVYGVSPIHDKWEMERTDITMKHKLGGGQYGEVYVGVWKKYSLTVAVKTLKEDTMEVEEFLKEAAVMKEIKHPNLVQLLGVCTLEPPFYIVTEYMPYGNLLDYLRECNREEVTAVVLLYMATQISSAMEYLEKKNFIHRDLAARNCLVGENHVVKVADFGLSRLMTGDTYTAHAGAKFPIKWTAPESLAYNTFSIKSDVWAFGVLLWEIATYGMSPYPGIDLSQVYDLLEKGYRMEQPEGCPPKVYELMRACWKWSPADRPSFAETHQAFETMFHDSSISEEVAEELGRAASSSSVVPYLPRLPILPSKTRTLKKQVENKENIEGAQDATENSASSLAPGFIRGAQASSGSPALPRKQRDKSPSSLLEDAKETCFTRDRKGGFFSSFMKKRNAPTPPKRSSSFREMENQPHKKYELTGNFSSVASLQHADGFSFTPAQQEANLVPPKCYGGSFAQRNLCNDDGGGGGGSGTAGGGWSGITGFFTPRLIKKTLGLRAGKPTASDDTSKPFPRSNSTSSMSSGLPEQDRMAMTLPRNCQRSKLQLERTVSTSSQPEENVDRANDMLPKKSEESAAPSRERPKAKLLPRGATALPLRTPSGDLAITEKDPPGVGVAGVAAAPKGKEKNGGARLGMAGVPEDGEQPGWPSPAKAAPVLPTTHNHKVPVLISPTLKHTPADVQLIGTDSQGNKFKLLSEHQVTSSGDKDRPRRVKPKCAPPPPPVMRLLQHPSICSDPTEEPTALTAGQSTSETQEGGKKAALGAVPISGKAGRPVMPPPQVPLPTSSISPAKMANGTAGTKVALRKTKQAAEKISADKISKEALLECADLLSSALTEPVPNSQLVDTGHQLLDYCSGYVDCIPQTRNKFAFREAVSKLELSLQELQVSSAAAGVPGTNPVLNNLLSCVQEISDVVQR
Chain of Protein kinase C beta type (Homo sapiens) (P05771 2-671 limits assumed): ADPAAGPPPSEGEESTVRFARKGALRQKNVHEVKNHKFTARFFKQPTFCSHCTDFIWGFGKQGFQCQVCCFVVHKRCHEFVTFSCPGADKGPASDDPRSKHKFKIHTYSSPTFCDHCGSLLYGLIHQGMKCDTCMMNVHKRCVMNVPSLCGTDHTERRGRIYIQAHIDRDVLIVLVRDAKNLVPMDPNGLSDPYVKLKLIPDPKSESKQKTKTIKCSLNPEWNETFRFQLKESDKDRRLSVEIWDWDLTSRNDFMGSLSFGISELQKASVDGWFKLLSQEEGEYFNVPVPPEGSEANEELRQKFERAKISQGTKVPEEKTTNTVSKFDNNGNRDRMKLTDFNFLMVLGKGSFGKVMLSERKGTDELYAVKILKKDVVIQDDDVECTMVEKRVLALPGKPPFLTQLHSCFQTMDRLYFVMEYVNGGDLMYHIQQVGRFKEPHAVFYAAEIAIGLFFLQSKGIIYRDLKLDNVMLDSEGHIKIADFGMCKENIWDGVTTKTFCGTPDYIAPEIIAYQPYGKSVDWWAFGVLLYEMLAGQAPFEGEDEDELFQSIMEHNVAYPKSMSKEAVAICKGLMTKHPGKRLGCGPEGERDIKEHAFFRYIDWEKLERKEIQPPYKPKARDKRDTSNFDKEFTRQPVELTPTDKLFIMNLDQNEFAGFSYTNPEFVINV
Chain of Cyclin-dependent kinase-like 2 (Homo sapiens) (Q92772 whole entry): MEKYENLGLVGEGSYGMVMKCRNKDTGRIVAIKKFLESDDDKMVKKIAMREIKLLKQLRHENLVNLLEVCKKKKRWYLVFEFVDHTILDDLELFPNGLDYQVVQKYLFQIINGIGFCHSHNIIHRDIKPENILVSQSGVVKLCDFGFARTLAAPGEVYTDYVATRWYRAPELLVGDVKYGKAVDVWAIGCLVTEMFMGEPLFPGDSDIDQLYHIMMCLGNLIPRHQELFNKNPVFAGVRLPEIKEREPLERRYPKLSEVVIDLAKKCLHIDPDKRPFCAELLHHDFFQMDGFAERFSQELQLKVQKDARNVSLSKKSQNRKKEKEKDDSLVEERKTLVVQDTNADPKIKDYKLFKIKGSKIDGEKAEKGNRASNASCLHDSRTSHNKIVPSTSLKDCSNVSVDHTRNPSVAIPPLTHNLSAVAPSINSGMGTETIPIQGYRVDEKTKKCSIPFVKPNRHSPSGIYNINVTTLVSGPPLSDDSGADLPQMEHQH
Chain of Fatty acid-binding protein, adipocyte (Homo sapiens) (P15090 2-132 limits assumed): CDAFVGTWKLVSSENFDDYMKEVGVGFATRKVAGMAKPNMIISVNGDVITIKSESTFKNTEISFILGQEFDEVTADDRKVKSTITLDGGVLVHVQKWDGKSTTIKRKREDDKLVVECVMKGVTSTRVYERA

Broadly, the inhibition is the drop in the measured response relative to a control, in per cent. Regarding `C=CS(=O)(=O)Nc1ccc(Cc2ccc3ccccc3c2)cc1`, the inhibition in test [1] was 3%; in test [2], -6%; in [3], 3%; in [4], -3%; in test [5], 15%; in [6], 3%. The inhibition in test [8] is 9%; in test [10], -1%; in test [11], -5%; in [12], 72.5%; in test [13] it was 9%; in [14], 7%. For the same compound, the inhibition was 4% in test [15]; 8% in test [16]; -10% in test [17]; 3% in [18]; 5% in [19]; -9% in test [20]. Moreover, the inhibition worked out at 16% in [21], 5% in test [22], 13% in test [23] and 4% in test [24]. Besides, the result in test [7] and in [9] was Active.

These data come from ChEMBL document CHEMBL4376829, “Discovery and biological evaluation of vinylsulfonamide derivatives as highly potent, covalent TEAD autopalmitoylation inhibitors” (Eur J Med Chem, 2019).
